Experimental data published in patent publication US7785828B1 (priority 2003, dated 2010).
Read-outs that look alike come from different tables or passages of the source.

What was measured:
Fusarium graminearum [1] = system: Fusarium graminearum; design: species or system wheat; details: in vivo
Mycosphaerella fijiensis = format: cell-based
Fusarium graminearum [2] = format: cell-based
Septoria tritici [3] = format: cell-based
Fusarium graminearum [4] = format: cell-based
Septoria tritici [5] = format: cell-based; design: key: + indicates a 1- to 5-fold improvement in activity compared to a reference defensin protein; ++ indicates a >5- to 10-fold improvement; +++ indicates a >10-fold improvement; “0” indicates no activity detected
[6] = Measurement taken at 144 hours after inoculation, fold improvement compared to DmAMP1
[7] = Measurement taken at 72 hours after inoculation, fold improvement compared to DmAMP1
[8] = Table 2B (Dm-AMP1 based libraries), improvement compared to reference defensin protein (Rs-AFP2 for Table 2B [sic])
[9] = Table 2C (mixed diversity library), improvement compared to reference defensin protein DmAMP

Sequence	disease spread compared to NP or wildtype defensin expression level in the infected plant (Fusarium graminearum [1])	Antifungal activity, Mycosphaerella fijiensis (improvement compared to DmAMP1) (Mycosphaerella fijiensis; [6])	Antifungal activity, Fusarium graminearum (improvement compared to DmAMP1) (Fusarium graminearum [2]; [7])	Antifungal activity, Septoria tritici (improvement compared to DmAMP1) (Septoria tritici [3]; [6])	Activity (1): antifungal activity of the NP against Fusarium graminearium (Fusarium graminearum [4]; [9])	other results
QKLCQKPSRTWSGVCGNNNACKNQCIRLEKARHGSCNYVFPAHKCICYFPC (Defensin like) [L2-12]	A protective effect was also seen					
QKLCQRPSGTWSGVCMNNNACKNQCIRLEKAKHGSCNYVFPAHKCICYFPC (Defensin like) [L2-52]	No clear correlation					
ELCEKASKTWSGNCGNTKHCDTQCKNWEGAKHGACHVRSGKHKCFCYFNC (Defensin like) [L3-135]	clear inverse correlation between expression level and disease spread					
NLCERASKTWSGNCGNTKHCDNQCKNWEGAKHGACHVRNGKHKCFCYFNC [L6-28] (Defensin like)	No clear correlation					Antifungal activity, Mycosphaerella fijiensis (improvement compared to DmAMP1) (Mycosphaerella fijiensis): + (key: + indicating 1- to 5-fold improvement compared to DmAMP1; ++ indicating >5- to 10-fold improvement; +++ indicating >10-fold improvement); Antifungal activity, Fusarium graminearum (improvement compared to DmAMP1) (Fusarium graminearum [2]): +++ (key: + indicating 1- to 5-fold improvement compared to DmAMP1; ++ indicating >5- to 10-fold improvement; +++ indicating >10-fold improvement); Antifungal activity, Septoria tritici (improvement compared to DmAMP1) (Septoria tritici [3]): + (key: + indicating 1- to 5-fold improvement compared to DmAMP1; ++ indicating >5- to 10-fold improvement; +++ indicating >10-fold improvement)
NLCERASKTWTGNCGNTKHCDTQCKNWEGAKHGACHVRSGKHKCFCYFNC (Defensin like) [L6-58]		+ (+ indicating 1- to 5-fold improvement compared to DmAMP1)	+++ (+++ indicating >10-fold improvement)	+ (+ indicating 1- to 5-fold improvement compared to DmAMP1)		Activity (1): antifungal activity of the NP against Fusarium graminearium (Fusarium graminearum [4]; [8]): +++ (+++ indicates a >10-fold improvement)
DGVKLCERPSQTWTGNCGNTKHCDKQCKNWEKAKHGACHVRNGKWKCFCYFNC (Defensin like) [L7-457]		+ (+ indicating 1- to 5-fold improvement compared to DmAMP1)	+ (+ indicating 1- to 5-fold improvement compared to DmAMP1)	+ (+ indicating 1- to 5-fold improvement compared to DmAMP1)	+++ (+++ indicates a >10-fold improvement)	
QKLCEKPSRTWSGVCGNNNACKNQCIRLEKARHGSCNYRFPAHKCICYVPC (Defensin like) [L1-01]						Activity (2): antifungal activity against Septoria tritici (Septoria tritici [5]): 0
DGVKLCERASQTWSGHCGNTKHCDNQCKSWEKAKHGACHVRSGKHKCFCYFNC (Defensin like) [L7-58]		+ (+ indicating 1- to 5-fold improvement compared to DmAMP1)	+ (+ indicating 1- to 5-fold improvement compared to DmAMP1)	+ (+ indicating 1- to 5-fold improvement compared to DmAMP1)	+++ (+++ indicates a >10-fold improvement)	
DGVKLCERASKTWSGHCGNTKHCDNQCRSWEGAKHGACHVRNGKWKCFCYFNC (Defensin like) [L7-452]		+ (+ indicating 1- to 5-fold improvement compared to DmAMP1)	++ (++ indicating >5- to 10-fold improvement)	+ (+ indicating 1- to 5-fold improvement compared to DmAMP1)	+++ (+++ indicates a >10-fold improvement)	
NLCERASKTWTGNCGNTKHCDTQCKSWEGAKHGACHVRNGKHKCFCYFNC (Defensin like) [L6-71]		+ (+ indicating 1- to 5-fold improvement compared to DmAMP1)	+++ (+++ indicating >10-fold improvement)	+ (+ indicating 1- to 5-fold improvement compared to DmAMP1)		Activity (1): antifungal activity of the NP against Fusarium graminearium (Fusarium graminearum [4]; [8]): +++ (+++ indicates a >10-fold improvement)
DGVKLCERASQTWTGHCGNTKHCDNQCRNWEGAKHGACHKRNGKWKCFCYFNC (Defensin like) [L7-337]		++ (++ indicating >5- to 10-fold improvement)	+++ (+++ indicating >10-fold improvement)	+ (+ indicating 1- to 5-fold improvement compared to DmAMP1)	++ (++ indicates a >5- to 10-fold improvement)	
NLCERASKTWTGNCGNTKHCDNQCKNWEGAKHGACHVRNGKWKCFCYFNC [L6-41] (Defensin like)		+ (+ indicating 1- to 5-fold improvement compared to DmAMP1)	+ (+ indicating 1- to 5-fold improvement compared to DmAMP1)	+ (+ indicating 1- to 5-fold improvement compared to DmAMP1)		Activity (1): antifungal activity of the NP against Fusarium graminearium (Fusarium graminearum [4]; [8]): +++ (+++ indicates a >10-fold improvement)
